The text below walks through data of patent publication US6773892B1, “Methods of identifying and determining the effectiveness of therapeutic processes or agents for the treatment of schizophrenia and related disorders” (Northeastern University, priority 1997, dated 2004).

Like-named read-outs stand apart in the source and are kept apart here.

For orientation: Kd means the concentration at which binding is half-saturated. One may read the IC50 as the midpoint of a concentration-inhibition curve.

For one assay, the system named is lymphocytes. The conditions noted are these: for inhibition of phospholipid methylation below basal: haloperidol 1 μM with dopamine/GTP; for stimulation of phospholipid methylation: dopamine (10 μM) and GTP (1 μM). An excerpt:
In an early hypothesis (“the transmethylation hypothesis”), a defect resulting in the formation of hallucinogens was proposed. […] To determine whether D4 receptor-dependent phospholipid methylation was altered in individuals with schizophrenia, males ages 27-70 with well documented schizophrenia by DSM-IV criteria, were studied and compared with normal controls.
To determine whether D4 receptor-dependent phospholipid methylation was altered in schizophrenia, the labelling of phospholipids by [^3H]-methyl-methionine in lymphocytes obtained from people with schizophrenia (as defined by DSM IV diagnostic criteria Diagnostic and Statistical Manual of Mental Disorders (4th Edition), American Psychiatric Association, Washington, D.C., […], pp. 759-764) under medical treatment) was measured as compared to lymphocytes from healthy controls. Lymphocytes were isolated as previously described (De La Rosa et al., J. Biol. Chem. 267:10699, 1992) and aliquots of 4×10^6 cells were resuspended in Hank's balanced salt solution containing 8 μCi/ml [^3H-methyl]methionine for 60 min. […] Incorporation of [^3H-methyl] label into phospholipids was determined as described in Example I.

For the next assay, the system named is SK-N-MC cells. The conditions noted are these: SK-N-MC cells grown in the presence of nucleosides.
The next assay has as its target T1, dopamine D4 receptors (Homo sapiens, UniProt P21917).
T1 sequence (P21917 1-419): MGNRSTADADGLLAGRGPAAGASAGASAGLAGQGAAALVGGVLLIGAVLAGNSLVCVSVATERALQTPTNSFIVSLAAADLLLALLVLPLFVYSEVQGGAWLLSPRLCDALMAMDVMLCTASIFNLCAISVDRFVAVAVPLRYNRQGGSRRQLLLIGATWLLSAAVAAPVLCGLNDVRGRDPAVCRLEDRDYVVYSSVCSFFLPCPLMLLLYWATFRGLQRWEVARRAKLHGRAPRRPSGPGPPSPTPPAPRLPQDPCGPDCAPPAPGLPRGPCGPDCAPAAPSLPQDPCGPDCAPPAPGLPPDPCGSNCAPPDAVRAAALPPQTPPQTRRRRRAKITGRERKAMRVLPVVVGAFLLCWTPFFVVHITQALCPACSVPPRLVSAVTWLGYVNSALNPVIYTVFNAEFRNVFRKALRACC
Conditions: Schlacter et al., Soc. Neurosci. Abstr. 1995; read-out: reported KD; cited from earlier work.

The next assay addresses T2, D4 receptor (Homo sapiens, UniProt P21917).
T2 construct: expressed in transfected cells; host or cells: CHO cells
T2 sequence (P21917 1-419): T1 sequence (P21917 1-419)
The experiment in a line: [14C] formate-labelled phospholipid methylation in CHO/D4 cells. It counts as cell-based. The conditions noted are these: absence of agonist.

Where [1] appears, read: lymphocytes of schizophrenia patients.

`O=C(CCCN1CCC(O)(c2ccc(Cl)cc2)CC1)c1ccc(F)cc1` [haloperidol]: the “effect on methyl incorporation into phospholipids, FIG. 4B” value in the assay with lymphocytes (both control and schizophrenia lymphocytes, dopamine 10 μM and GTP 1 mM, with or without haloperidol 1 μM) is recorded as “significant decrease”. Also, the “inhibition of phospholipid methylation below basal” value in the assay with lymphocytes (lymphocytes of normal controls) is 25%; with lymphocytes (setting [1]), 39%.
As to `NCCc1ccc(O)c(O)c1` [dopamine], the “stimulation of phospholipid methylation” value in the assay with lymphocytes (lymphocytes of normal controls) is 30%; with lymphocytes (setting [1]), 165%. In the assay with SK-N-MC cells, the “effect on [14C] formate-labelled phospholipid methylation, FIG. 3c” value is “dose-dependent dopamine stimulation”.
In the case of `CC(C)Oc1cccnc1N(C)C1CCN(Cc2ccccc2)CC1` [U-101,958], the Kd on dopamine D4 receptors is 1 nM. Also, on D4 receptor (CHO/D4 cells grown in nucleoside-free medium), the “effect on [14C] formate-labelled phospholipid methylation, FIG. 3b” value is “dose-dependent inhibition”. At D4 receptor (CHO/D4 cells, read-out: IC50 of inhibition of phospholipid methylation), the IC50 amounted to 0.2 nM.
